Data published in US20080319191A1, “Crystalline form IV of linezolid” (Teva Pharmaceutical Industries Ltd., priority 2005, published 2008).

Experiments:
Assay type in all cases: physicochemical
[1] = Chemical stability of Form IV obtained by heating Form II at 170° C.; conditions: Form IV obtained at 170° C. (one hour)
Procedure: Crystalline linezolid Form IV may be prepared by heating crystalline linezolid Form II to a temperature higher than 85° C. Crystalline linezolid Form IV is obtained by keeping crystalline linezolid Form II at a temperature of between 85-175° C. As an example, crystalline linezolid Form II was kept at a temperature of 170° C. during one hour. The polymorphic form of crystalline linezolid Form II was changed to crystalline linezolid Form IV.

[2] = Long term stability of linezolid Form IV at room temperature and accelerated conditions (40° C. and 55° C.)
Procedure: The long term stability of linezolid Form IV was tested by storing it at room temperature and under accelerated conditions at 40° C. and 55° C.

[3] = Stability of linezolid Form IV stored 10 days at 0-100% relative humidity at room temperature
Procedure: The stability of linezolid Form IV was tested by storing it for 10 days at a relative humidity of between 0 and 100% at room temperature.

Chemical stability [1]: chemically stable
Crystal form after storage (Results) ([2]; 25° C., 1 M): Form IV
Crystal form after storage (Results) ([2]; 25° C., 2 M): Form IV
Crystal form after storage (Results) ([2]; 25° C., 3 M): Form IV
Time stable on storage ([2]; 25° C., 40° C., and 55° C.): ≥ 3 months
Crystal form after storage (Results) ([2]; 25° C., As is): Form IV
Crystal form after storage (Results) ([2]; 40° C., 1 M): Form IV
Crystal form after storage (Results) ([2]; 40° C., 2 M): Form IV
Crystal form after storage (Results) ([2]; 40° C., 3 M): Form IV
Crystal form after storage (Results) ([2]; 55° C., 1 M): Form IV
Crystal form after storage (Results) ([2]; 55° C., 2 M): Form IV
Crystal form after storage (Results) ([2]; 55° C., 3 M): Form IV
Solvent content ([3]; As is (before storage)): 0.1%
Hygroscopicity ([3]; between 0-100% RH): non-hygroscopic
Stability ([3]; between 0-100% RH): stable
Solvent content ([3]; relative humidity 0%, 10 days, room temperature): 0.1%
Solvent content ([3]; relative humidity 20%, 10 days, room temperature): 0.1%
Solvent content ([3]; relative humidity 40%, 10 days, room temperature): 0.1%
Solvent content ([3]; relative humidity 60%, 10 days, room temperature): 0.1%
Solvent content ([3]; relative humidity 80%, 10 days, room temperature): 0.1%
Solvent content ([3]; relative humidity 100%, 10 days, room temperature): 0.1%
Time stable against transformation into Form II upon storage ([3]; relative humidity of about 0% to about 100%, room temperature): at least 10 days
Structure (SMILES): CC(=O)NC[C@H]1CN(c2ccc(N3CCOCC3)c(F)c2)C(=O)O1 [linezolid Form IV]
